Measurements published in patent publication US20110183969A1, “ANTIFUNGAL COMBINATION THERAPY” (priority 2008, published 2011).
Values after ≈ are worked out from the molar mass of the structure shown. Like-named read-outs stand apart in the source and are kept apart here.

Columns and labels:
Experiment in all cases: MIC (YAG medium)
Type in all cases: cell-based
[1] = tested on: Aspergillus flavus; details: for MIC: Aspergillus flavus, read-out: MIC A. flavus (grade)
Outline: (§1)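 OD 485 nm read-out after 24 h, 35° C; MIC = lowest concentration inhibiting growth >70% vs drug-free control, in mg/L. Medium YAG (1% glucose, 1% NH4Cl, 0.5% yeast extract); inoculum 1-2×10^4 cfu/mL; compound range 50-0.05 mg/L, repeated at 0.5-0.0005 mg/L […].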

[2] = tested on: Aspergillus fumigatus AF210; details: for MIC: Aspergillus fumigatus
Outline: as §1

[3] = tested on: Aspergillus fumigatus AF293; details: for MIC: Aspergillus fumigatus
Outline: as §1

[4] = tested on: Aspergillus niger; details: for MIC: Aspergillus niger, read-out: MIC A. niger (grade)
Outline: as §1

[5] = tested on: Aspergillus terreus AT49; details: for MIC: Aspergillus terreus
Outline: as §1

[6] = tested on: Aspergillus terreus AT4; details: for MIC: Aspergillus terreus
Outline: as §1

[7] = YAG medium, MIC banded into grades
[8] = YAG medium, MIC banded into grades, AF210, read-out: MIC A. fumigatus 210 (grade)
[9] = YAG medium, MIC banded into grades, AF293, read-out: MIC A. fumigatus (grade)
[10] = YAG medium, MIC banded into grades, AT49, read-out: MIC A. terreus 49 (grade)
[11] = YAG medium, MIC banded into grades, AT4, read-out: MIC A. terreus (grade)
[12] = YAG medium, MIC banded into grades, AF210
[13] = YAG medium, MIC banded into grades, AF293
[14] = YAG medium, MIC banded into grades, AT49
[15] = YAG medium, MIC banded into grades, AT4

Row | Compound | MIC [1, 7] [µg/mL] | MIC [2, 8] [µg/mL] | MIC [3, 9] [µg/mL] | MIC [4, 7] [µg/mL] | MIC [5, 10] [µg/mL] | MIC [6, 11] [µg/mL] | also measured
1 | CS(=O)(=O)NC(=O)c1ccc(NC(=O)C(=O)c2c(-c3ccccc3)cc3ccccn23)cc1 [Example 5, N-(4-methanesulfonylaminocarbonyl-phenyl)-2-oxo-2-(2-phenyl-indolizin-3-yl)-acetamide] | > 10 | > 10 | > 10 | > 10 | > 10 | > 10 | –
2 | O=C(Nc1ccc(N2CCN(c3ccccn3)CC2)cc1)C(=O)c1c(-c2ccccc2)cc2ccccn12 [Example 41, 2-Oxo-2-(2-phenyl-indolizin-3yl)-N-[4-(4-pyridin-2-yl-piperizin-1-yl)-phenyl]-acetamide] | – | – | – | – | – | – | MIC A. flavus (grade) [1, 7]: 3 (A grade of 3 represents an MIC of less than 1 mg/L); MIC A. fumigatus 210 (grade) [2, 12]: 3 (A grade of 3 represents an MIC of less than 1 mg/L); MIC A. fumigatus (grade) [3, 13]: 3 (A grade of 3 represents an MIC of less than 1 mg/L); MIC A. niger (grade) [4, 7]: 3 (A grade of 3 represents an MIC of less than 1 mg/L); MIC A. terreus 49 (grade) [5, 14]: 3 (A grade of 3 represents an MIC of less than 1 mg/L); MIC A. terreus (grade) [6, 15]: 3 (A grade of 3 represents an MIC of less than 1 mg/L)
3 | CC(C)c1ncc(C(C)(C)c2cccc(NC(=O)C(=O)c3c(-c4ccccc4)cc4ccccn34)c2)n1C [Example 15, N-{3-[1-(2-Isopropyl-3-methyl-3H-imidazol-4-yl)-1-methyl-ethyl]-phenyl}-2-oxo-2-(2-phenyl-indolizin-3-yl)-acetamide] | > 10 | > 10 | > 10 | > 10 | > 10 | > 10 | –
4 | CCOCCN(C1=NC(C)(C)CO1)c1ccc(NC(=O)C(=O)c2c(-c3ccccc3)cc3ccccn23)cc1 [Example 28] | – | – | – | – | – | – | MIC A. flavus (grade) [1, 7]: 2 (A grade of 2 represents an MIC of from 1 to 10); MIC A. fumigatus 210 (grade) [2, 12]: 2 (A grade of 2 represents an MIC of from 1 to 10); MIC A. fumigatus (grade) [3, 13]: 2 (A grade of 2 represents an MIC of from 1 to 10); MIC A. niger (grade) [4, 7]: 3 (A grade of 3 represents an MIC of less than 1 mg/L); MIC A. terreus 49 (grade) [5, 14]: 2 (A grade of 2 represents an MIC of from 1 to 10); MIC A. terreus (grade) [6, 15]: 2 (A grade of 2 represents an MIC of from 1 to 10)
5 | O=C(Nc1ccc(C(=O)OC2CCOCC2)c(O)c1)C(=O)c1c(-c2ccccc2)cc2ccccn12 [Example 11, 2-hydroxy-4-[2-oxo-2-(2-phenyl-indolizin-3-yl)-acetylamino]-benzoic acid tetrahydro-pyran-4-yl ester] | < 1 | < 1 | < 1 | < 1 | < 1 | < 1 | –
6 | CCN(CC)C(=O)Oc1cc(-c2ccc(NC(=O)C(=O)c3c(-c4ccccc4)cc4ccccn34)cc2)on1 [Example 27, Diethyl-carbamic acid-5-{4-[2-oxo-2-(2-phenyl-indolizin-3-yl)-acetylamino]-phenyl}-isoxazol-3-yl ester] | – | – | – | – | – | – | MIC [1]: < 1 µg/mL; MIC ([2]; AF210, read-out: MIC A. fumigatus 210 (grade)): < 1 µg/mL; MIC ([3]; AF293, read-out: MIC A. fumigatus (grade)): < 1 µg/mL; MIC [4]: < 1 µg/mL; MIC ([5]; AT49, read-out: MIC A. terreus 49 (grade)): < 1 µg/mL; MIC ([6]; AT4, read-out: MIC A. terreus (grade)): < 1 µg/mL
7 | O=C(Nc1ccccc1F)C(=O)c1c(-c2ccccc2)cc2ccc3ccccc3n12 [Example 4, N-(2-fluoro-phenyl)-2-oxo-2-(2-phenyl-pyrrolo[1,2-a]quinolin-1-yl)-acetamide] | > 10 | > 10 | > 10 | > 10 | > 10 | > 10 | –
8 | CN1/C(=N/c2ccc(NC(=O)C(=O)c3c(-c4ccccc4)cc4ccccn34)cc2)OCC1(C)C [Example 8, 2-oxo-2-(2-phenyl-indolizin-3-yl)-N-{4-[3,4,4-trimethyl-oxazolidin-(2Z)-ylideneamino]-phenyl}-acetamide] | > 10 | > 10 | > 10 | > 10 | 1 to 10 (≈ 2.14 to 21.4 µM) | > 10 | –
9 | O=C(Nc1ccc(N2CCN(c3ccc(CN4CCOCC4)cn3)CC2)cc1)C(=O)c1c(-c2ccccc2)cc2ccccn12 [Example 77, N-{4-[4-(5-morpholin-4-yl-methyl-pyridin-2-yl)-piperazin-1-yl]-phenyl}-2-oxo-2-(2-phenyl-indolizin-3-yl)-acetamide] | – | – | – | – | – | – | MIC A. flavus (grade) [1, 7]: 3 (A grade of 3 represents an MIC of less than 1 mg/L); MIC A. fumigatus 210 (grade) [2, 12]: 3 (A grade of 3 represents an MIC of less than 1 mg/L); MIC A. fumigatus (grade) [3, 13]: 3 (A grade of 3 represents an MIC of less than 1 mg/L); MIC A. niger (grade) [4, 7]: 3 (A grade of 3 represents an MIC of less than 1 mg/L); MIC A. terreus 49 (grade) [5, 14]: 3 (A grade of 3 represents an MIC of less than 1 mg/L); MIC A. terreus (grade) [6, 15]: 3 (A grade of 3 represents an MIC of less than 1 mg/L)

The next lines start with results.

Row | MIC [1, 7] [µg/mL] | MIC [2, 8] [µg/mL] | MIC [3, 9] [µg/mL] | MIC [4, 7] [µg/mL] | MIC [5, 10] [µg/mL] | MIC [6, 11] [µg/mL] | Compound | also measured
10 | > 10 | > 10 | > 10 | > 10 | 1 to 10 (≈ 1.78 to 17.8 µM) | > 10 | CC(C)c1nccn1CCOC(=O)C(C)(C)c1ccc(NC(=O)C(=O)c2c(-c3ccccc3)cc3ccccn23)cc1 [Example 18, 2-methyl-2-{4-[2-oxo-2-(2-phenyl-indolizin-3-yl)-acetylamino]-phenyl}-propionic acid 2-(2-isopropyl-imidazol-1-yl)-ethyl ester] | –
11 | 1 to 10 (≈ 1.98 to 19.8 µM) | < 1 | < 1 | 1 to 10 (≈ 1.98 to 19.8 µM) | < 1 | < 1 | Cc1cc(OCCOc2ccc(NC(=O)C(=O)c3c(-c4ccccc4)cc4ccccn34)cc2)cc(C)n1 [Example 71, N-{4-[2-(2,6-Dimethyl-pyridin-4-yloxy)-ethoxy]-phenyl}-2-oxo-2-(2-phenyl-indolizin-3-yl)-acetamide] | –
12 | < 1 | < 1 | < 1 | < 1 | < 1 | < 1 | Cc1cc(C)nc(N2CCN(c3ccc(NC(=O)C(=O)c4c(-c5ccccc5)cc5ccccn45)c(C)c3)CC2)c1 [Example 80, N-{4-[4-(4,6-Dimethyl-pyridin-2-yl)-piperazin-1-yl]-2-methyl-phenyl}-2-oxo-2-(2-phenyl-indolizin-3-yl)-acetamide] | –
13 | < 1 | < 1 | < 1 | < 1 | < 1 | < 1 | Cc1cc(C)nc(OCCOc2ccc(NC(=O)C(=O)c3c(-c4ccccc4)cc4ccccn34)cc2)c1 [Example 65, N-{4-[2-(4,6-Dimethyl-pyridin-2-yloxy)-ethoxy]-phenyl}-2-oxo-2-(2-phenyl-indolizin-3-yl)-acetamide] | –
14 | < 1 | < 1 | < 1 | < 1 | < 1 | < 1 | CCc1cccc(N2CCN(c3ccc(NC(=O)C(=O)c4c(-c5ccccc5)cc5ccccn45)cc3)CC2)n1 [Example 73, N-{4-[4-(6-ethyl-pyridin-2-yl)-piperazin-1-yl]-phenyl}-2-oxo-2-(2-phenyl-indolizin-3-yl)-acetamide] | –
15 | < 1 | < 1 | < 1 | < 1 | < 1 | < 1 | COCCOc1cc(C)nc(N2CCN(c3ccc(NC(=O)C(=O)c4c(-c5ccccc5)cc5ccccn45)cc3)CC2)c1 [Example 57, N-(4-{4-[4-(2-Methoxy-ethoxy)-6-methyl-pyridin-2-yl]-piperazin-1-yl}-phenyl)-2-oxo-2-(2-phenyl-indolizin-3-yl)-acetamide] | –
16 | < 1 | < 1 | < 1 | < 1 | < 1 | < 1 | Cc1cc(C)nc(N2CCN(c3ccc(NC(=O)C(=O)c4c(-c5ccccc5)cc5ccc(F)cn45)cc3)CC2)c1 [Example 32, N-{4-[4-(4,6-Dimethyl-pyridin-2-yl)-piperazin-1-yl]-phenyl}-2-(6-fluoro-2-phenyl-indolizin-3-yl)-2-oxo-acetamide] | –
17 | < 1 | < 1 | < 1 | < 1 | < 1 | < 1 | O=C(Nc1cnccc1N1CCN(CCc2ccco2)CC1)C(=O)c1c(-c2ccccc2)cc2ccccn12 [Example 38, N-{4-[4-(2-Furan-2-yl-ethyl)-piperazin-1-yl]-pyridin-3-yl}-2-oxo-2-(2-phenyl-indolizin-3-yl)-acetamide] | –
18 | < 1 | < 1 | < 1 | < 1 | < 1 | < 1 | Cc1cc(C)nc(N2CCN(c3cccc(NC(=O)C(=O)c4c(-c5ccccc5)cc5ccccn45)c3)CC2)c1 [Example 48, N-{3-[4-(4,6-Dimethyl-pyridin-2-yl)-piperazin-1-yl]-phenyl}-2-oxo-2-(2-phenyl-indolizin-3-yl)-acetamide] | –
19 | < 1 | < 1 | < 1 | < 1 | < 1 | < 1 | COCc1cc(N2CCN(c3cc(C)cc(C)n3)CC2)ccc1NC(=O)C(=O)c1c(-c2ccccc2)cc2ccccn12 [Example 83, N-{4-[4-(4,6-Dimethyl-pyridin-2-yl)-piperazin-1-yl]-2-methoxymethyl-phenyl}-2-oxo-2-(2-phenyl-indolizin-3-yl)-acetamide] | –
